Experimental data as given in article PMC10599993, “The PTPN2/PTPN1 inhibitor ABBV-CLS-484 unleashes potent anti-tumour immunity” (Nature, 2023).

What was measured:
Experiment in all cases: biochemical
[1] = target: T1, 5-HT1A (Homo sapiens, UniProt P08908); parameters: Safety pharmacology off-target panel at Eurofins, radioligand binding with agonist or antagonist radioligand (Supplementary Table 2); conditions: agonist radioligand
T1 construct: gene HTR1A
Experimental: (§1) Wide-range phosphatase, kinase and preclinical safety pharmacology off-target activity screens were conducted at Eurofins (Extended Data Table 5 and Supplementary Tables 1 and 2). A small phosphatase panel was developed at AbbVie to assess IC50 values on select phosphatases. The following enzymes used in the phosphatase selectivity panel were purchased from Eurofins: PTPN1 (PTP1B; 14–621), PTPN2 (TC-PTP; 14–646), PTPN9 (14–592), SHP1 (14–591) and SHP2 (14–622). The catalytic activity of the phosphatase was monitored using the small-molecule substrate DiFMUP (ThermoFisher) in a fluorescence assay format. In brief, the phosphatase reactions were performed at room temperature in the following assay buffer: 50 mM HEPES, pH 7.2, 100 mM NaCl, 1 mM EDTA, 0.005% Tween-20 and 5 mM TCEP. Each phosphatase was incubated with increasing concentrations of AC484 for 5 min, after which the substrate DiFMUP was added and incubated at 25 °C for 30 min. The final concentration of the enzyme and substrate was maintained at 0.5 nM and 5 μM, respectively, in all the assays. The reaction was then quenched by the addition of a 100 μM solution of bpV(Phen) (Enzo Life Sciences). The fluorescence signal was monitored using an Envision microplate reader (Perkin-Elmer) using excitation and emission wavelengths of 340 nm and 450 nm, respectively. The dose–response curves for the inhibitors were analysed using normalized IC50 regression curve fitting with control-based normalization. Supplementary file 41586_2023_6575_MOESM4_ESM.xlsx: Supplementary Table 2 AC484 receptor selectivity screen.

[2] = target: T2, 5-HT3 (Homo sapiens, UniProt P46098); parameters: Safety pharmacology off-target panel at Eurofins, radioligand binding with agonist or antagonist radioligand (Supplementary Table 2); conditions: antagonist radioligand
T2 construct: gene HTR3A
Experimental: as §1

[3] = target: T3, A1 (h) (Homo sapiens, UniProt P30542); parameters: Safety pharmacology off-target panel at Eurofins, radioligand binding with agonist or antagonist radioligand (Supplementary Table 2); conditions: antagonist radioligand
T3 construct: gene ADORA1
T3 sequence (P30542 whole entry): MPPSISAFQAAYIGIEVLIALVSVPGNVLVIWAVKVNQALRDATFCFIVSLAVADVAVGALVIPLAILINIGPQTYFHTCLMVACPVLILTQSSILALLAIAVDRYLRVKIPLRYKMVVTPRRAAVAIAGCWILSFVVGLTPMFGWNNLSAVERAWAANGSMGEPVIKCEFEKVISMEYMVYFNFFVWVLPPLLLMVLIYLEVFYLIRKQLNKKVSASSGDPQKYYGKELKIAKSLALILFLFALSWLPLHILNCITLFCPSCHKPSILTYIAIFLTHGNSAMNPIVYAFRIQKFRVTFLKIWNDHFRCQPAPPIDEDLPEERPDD
Experimental: as §1

[4] = target: T4, A2A (h) (Homo sapiens, UniProt P29274); parameters: Safety pharmacology off-target panel at Eurofins, radioligand binding with agonist or antagonist radioligand (Supplementary Table 2); conditions: agonist radioligand
T4 construct: gene ADORA2A
T4 sequence (P29274 whole entry): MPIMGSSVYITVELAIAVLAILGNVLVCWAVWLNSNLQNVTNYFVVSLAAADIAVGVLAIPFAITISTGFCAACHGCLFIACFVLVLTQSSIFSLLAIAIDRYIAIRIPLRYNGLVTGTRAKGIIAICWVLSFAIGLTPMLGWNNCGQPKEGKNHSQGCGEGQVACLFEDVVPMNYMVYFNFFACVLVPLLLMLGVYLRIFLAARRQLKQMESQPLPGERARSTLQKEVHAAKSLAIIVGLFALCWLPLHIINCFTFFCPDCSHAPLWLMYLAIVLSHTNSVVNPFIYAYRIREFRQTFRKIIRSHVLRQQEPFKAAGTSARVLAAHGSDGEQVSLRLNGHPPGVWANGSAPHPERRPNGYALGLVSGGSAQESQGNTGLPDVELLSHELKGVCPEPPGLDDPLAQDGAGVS
Experimental: as §1

[5] = target: AR (Homo sapiens, UniProt P10275); parameters: Safety pharmacology off-target panel at Eurofins, radioligand binding with agonist or antagonist radioligand (Supplementary Table 2); conditions: agonist radioligand
Sequence of AR (P10275 whole entry): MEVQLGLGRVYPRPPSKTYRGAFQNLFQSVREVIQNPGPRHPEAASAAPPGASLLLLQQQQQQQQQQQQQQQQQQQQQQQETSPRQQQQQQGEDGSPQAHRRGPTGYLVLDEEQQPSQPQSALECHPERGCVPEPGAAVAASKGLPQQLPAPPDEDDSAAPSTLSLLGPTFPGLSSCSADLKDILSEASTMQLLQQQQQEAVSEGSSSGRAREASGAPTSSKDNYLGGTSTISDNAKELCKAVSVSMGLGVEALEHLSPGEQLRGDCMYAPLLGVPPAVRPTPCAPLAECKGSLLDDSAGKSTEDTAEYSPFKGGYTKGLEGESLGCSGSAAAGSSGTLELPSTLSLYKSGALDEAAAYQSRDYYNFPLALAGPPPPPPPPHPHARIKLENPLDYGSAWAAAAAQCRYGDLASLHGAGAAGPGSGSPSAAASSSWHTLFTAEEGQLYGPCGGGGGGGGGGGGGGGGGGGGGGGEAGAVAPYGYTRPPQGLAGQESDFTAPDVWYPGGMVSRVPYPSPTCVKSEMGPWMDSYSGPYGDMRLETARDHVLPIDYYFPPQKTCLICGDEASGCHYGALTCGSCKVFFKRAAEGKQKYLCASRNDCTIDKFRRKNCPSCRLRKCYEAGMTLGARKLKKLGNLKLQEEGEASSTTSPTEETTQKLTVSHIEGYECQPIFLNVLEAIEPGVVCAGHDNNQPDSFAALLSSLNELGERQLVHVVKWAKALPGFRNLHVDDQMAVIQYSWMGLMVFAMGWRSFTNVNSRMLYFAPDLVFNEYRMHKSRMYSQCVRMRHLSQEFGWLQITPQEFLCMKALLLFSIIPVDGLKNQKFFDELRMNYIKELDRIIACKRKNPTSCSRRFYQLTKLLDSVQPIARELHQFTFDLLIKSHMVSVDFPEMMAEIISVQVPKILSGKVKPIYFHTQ
Experimental: as §1

[6] = target: T5, AT2 (h) (Homo sapiens, UniProt P50052); parameters: Safety pharmacology off-target panel at Eurofins, radioligand binding with agonist or antagonist radioligand (Supplementary Table 2); conditions: agonist radioligand
T5 construct: gene AGTR2
T5 sequence (P50052 whole entry): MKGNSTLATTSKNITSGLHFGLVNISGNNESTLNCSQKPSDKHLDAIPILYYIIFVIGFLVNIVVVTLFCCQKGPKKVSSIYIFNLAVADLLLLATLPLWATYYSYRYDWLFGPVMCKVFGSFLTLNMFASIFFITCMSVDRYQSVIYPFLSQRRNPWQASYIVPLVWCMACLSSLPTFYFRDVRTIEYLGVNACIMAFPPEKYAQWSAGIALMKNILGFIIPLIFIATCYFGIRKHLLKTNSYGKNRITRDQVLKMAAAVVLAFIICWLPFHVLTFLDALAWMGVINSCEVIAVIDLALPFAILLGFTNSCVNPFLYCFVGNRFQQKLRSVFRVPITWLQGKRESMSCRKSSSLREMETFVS
Experimental: as §1

[7] = target: T6, B2 (Homo sapiens, UniProt P30411); parameters: Safety pharmacology off-target panel at Eurofins, radioligand binding with agonist or antagonist radioligand (Supplementary Table 2); conditions: agonist radioligand
T6 construct: gene BDKRB2
Experimental: as §1

[8] = target: T7, D2S (Homo sapiens, UniProt P14416); parameters: Safety pharmacology off-target panel at Eurofins, radioligand binding with agonist or antagonist radioligand (Supplementary Table 2); conditions: antagonist radioligand
T7 construct: gene DRD2; D2S short isoform
T7 sequence (P14416 whole entry, canonical isoform): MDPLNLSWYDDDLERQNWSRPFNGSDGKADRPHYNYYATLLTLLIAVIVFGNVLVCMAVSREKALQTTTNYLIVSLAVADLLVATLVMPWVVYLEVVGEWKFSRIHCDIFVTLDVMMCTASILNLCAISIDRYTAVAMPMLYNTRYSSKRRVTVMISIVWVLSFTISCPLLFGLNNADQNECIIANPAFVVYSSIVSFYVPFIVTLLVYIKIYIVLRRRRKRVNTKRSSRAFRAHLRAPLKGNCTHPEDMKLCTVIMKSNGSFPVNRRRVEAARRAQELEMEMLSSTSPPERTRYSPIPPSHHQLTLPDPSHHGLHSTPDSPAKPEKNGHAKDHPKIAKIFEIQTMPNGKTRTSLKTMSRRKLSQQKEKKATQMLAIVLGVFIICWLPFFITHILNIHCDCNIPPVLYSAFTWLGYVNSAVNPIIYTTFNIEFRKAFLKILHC
Experimental: as §1

[9] = target: T8, Dopamine transporter (Homo sapiens, UniProt Q01959); parameters: Safety pharmacology off-target panel at Eurofins, radioligand binding with agonist or antagonist radioligand (Supplementary Table 2); conditions: antagonist radioligand
T8 construct: gene SLC6A3
T8 sequence (Q01959 whole entry): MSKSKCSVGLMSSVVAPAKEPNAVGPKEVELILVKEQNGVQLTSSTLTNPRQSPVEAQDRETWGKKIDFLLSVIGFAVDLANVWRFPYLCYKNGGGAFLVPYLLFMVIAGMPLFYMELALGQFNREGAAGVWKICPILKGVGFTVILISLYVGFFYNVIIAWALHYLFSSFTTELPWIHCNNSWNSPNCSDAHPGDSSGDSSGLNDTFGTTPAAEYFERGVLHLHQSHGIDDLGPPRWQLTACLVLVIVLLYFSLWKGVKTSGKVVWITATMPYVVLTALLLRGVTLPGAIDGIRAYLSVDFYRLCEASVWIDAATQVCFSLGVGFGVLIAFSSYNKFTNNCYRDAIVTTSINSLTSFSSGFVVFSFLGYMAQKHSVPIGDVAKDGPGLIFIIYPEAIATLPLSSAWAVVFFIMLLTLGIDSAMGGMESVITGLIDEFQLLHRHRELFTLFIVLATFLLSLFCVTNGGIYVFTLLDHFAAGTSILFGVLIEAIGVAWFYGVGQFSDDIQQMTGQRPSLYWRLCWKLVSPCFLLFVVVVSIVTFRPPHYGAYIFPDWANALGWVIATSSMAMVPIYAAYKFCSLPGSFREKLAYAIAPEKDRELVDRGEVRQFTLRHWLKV
Experimental: as §1

[10] = target: T9, ETA (Homo sapiens, UniProt P25101); parameters: Safety pharmacology off-target panel at Eurofins, radioligand binding with agonist or antagonist radioligand (Supplementary Table 2); conditions: agonist radioligand
T9 construct: gene EDNRA
Experimental: as §1

[11] = target: T10, M2 (Homo sapiens, UniProt P08172); parameters: Safety pharmacology off-target panel at Eurofins, radioligand binding with agonist or antagonist radioligand (Supplementary Table 2); conditions: antagonist radioligand
T10 construct: gene CHRM2
T10 sequence (P08172 whole entry): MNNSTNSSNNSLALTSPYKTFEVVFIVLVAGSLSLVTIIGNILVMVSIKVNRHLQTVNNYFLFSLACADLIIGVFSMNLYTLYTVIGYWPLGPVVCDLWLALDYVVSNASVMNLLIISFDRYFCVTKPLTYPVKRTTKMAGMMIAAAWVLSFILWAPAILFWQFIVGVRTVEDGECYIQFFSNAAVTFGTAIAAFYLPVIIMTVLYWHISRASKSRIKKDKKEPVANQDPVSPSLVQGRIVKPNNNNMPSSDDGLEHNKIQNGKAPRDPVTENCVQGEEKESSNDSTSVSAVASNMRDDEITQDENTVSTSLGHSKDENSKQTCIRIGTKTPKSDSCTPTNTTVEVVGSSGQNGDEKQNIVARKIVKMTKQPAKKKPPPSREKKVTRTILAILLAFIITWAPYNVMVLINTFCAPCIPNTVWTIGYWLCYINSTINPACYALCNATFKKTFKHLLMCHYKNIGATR
Experimental: as §1

[12] = target: T11, M3 (Homo sapiens, UniProt P20309); parameters: Safety pharmacology off-target panel at Eurofins, radioligand binding with agonist or antagonist radioligand (Supplementary Table 2); conditions: antagonist radioligand
T11 construct: gene CHRM3
T11 sequence (P20309 whole entry): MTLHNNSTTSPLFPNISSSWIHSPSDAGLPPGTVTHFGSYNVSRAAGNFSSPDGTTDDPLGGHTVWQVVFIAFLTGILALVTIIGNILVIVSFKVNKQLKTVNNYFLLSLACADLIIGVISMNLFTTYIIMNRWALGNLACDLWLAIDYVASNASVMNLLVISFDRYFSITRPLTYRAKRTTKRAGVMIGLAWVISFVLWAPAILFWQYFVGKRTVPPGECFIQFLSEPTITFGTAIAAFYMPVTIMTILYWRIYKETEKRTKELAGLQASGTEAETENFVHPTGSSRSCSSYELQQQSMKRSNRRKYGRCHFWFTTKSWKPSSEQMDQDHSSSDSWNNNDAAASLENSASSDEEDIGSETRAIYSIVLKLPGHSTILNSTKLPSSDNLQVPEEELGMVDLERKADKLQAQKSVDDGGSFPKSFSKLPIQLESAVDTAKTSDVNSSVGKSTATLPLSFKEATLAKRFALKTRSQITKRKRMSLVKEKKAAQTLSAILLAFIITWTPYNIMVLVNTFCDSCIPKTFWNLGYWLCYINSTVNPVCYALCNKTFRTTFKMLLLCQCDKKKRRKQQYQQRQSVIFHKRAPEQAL
Experimental: as §1

[13] = target: T12, M5 (Homo sapiens, UniProt P08912); parameters: Safety pharmacology off-target panel at Eurofins, radioligand binding with agonist or antagonist radioligand (Supplementary Table 2); conditions: antagonist radioligand
T12 construct: gene CHRM5
Experimental: as §1

[14] = target: T13, Motilin (Homo sapiens, UniProt O43193); parameters: Safety pharmacology off-target panel at Eurofins, radioligand binding with agonist or antagonist radioligand (Supplementary Table 2); conditions: agonist radioligand
T13 construct: gene MLNR
T13 sequence (O43193 whole entry): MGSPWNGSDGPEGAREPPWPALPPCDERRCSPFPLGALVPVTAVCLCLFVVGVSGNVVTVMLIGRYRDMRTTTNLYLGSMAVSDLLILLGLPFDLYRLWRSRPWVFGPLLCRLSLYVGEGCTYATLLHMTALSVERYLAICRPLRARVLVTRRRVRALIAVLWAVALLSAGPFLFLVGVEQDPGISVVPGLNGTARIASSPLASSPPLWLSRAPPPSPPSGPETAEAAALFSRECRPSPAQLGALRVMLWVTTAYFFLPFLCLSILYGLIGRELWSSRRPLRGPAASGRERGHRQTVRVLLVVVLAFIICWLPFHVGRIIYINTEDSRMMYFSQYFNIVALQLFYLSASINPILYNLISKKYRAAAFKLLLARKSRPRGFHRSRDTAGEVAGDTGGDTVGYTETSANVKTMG
Experimental: as §1

[15] = target: T14, VPAC1 (VIP1) (Homo sapiens, UniProt P32241); parameters: Safety pharmacology off-target panel at Eurofins, radioligand binding with agonist or antagonist radioligand (Supplementary Table 2); conditions: agonist radioligand
T14 construct: gene VIPR1
Experimental: as §1

[16] = target: T15, Y1 (Homo sapiens, UniProt P25929); parameters: Safety pharmacology off-target panel at Eurofins, radioligand binding with agonist or antagonist radioligand (Supplementary Table 2); conditions: agonist radioligand
T15 construct: gene NPY1R
Experimental: as §1

[17] = target: T16, b2 (h) (Homo sapiens, UniProt P07550); parameters: Safety pharmacology off-target panel at Eurofins, radioligand binding with agonist or antagonist radioligand (Supplementary Table 2); conditions: antagonist radioligand
T16 construct: gene ADRB2
T16 sequence (P07550 whole entry): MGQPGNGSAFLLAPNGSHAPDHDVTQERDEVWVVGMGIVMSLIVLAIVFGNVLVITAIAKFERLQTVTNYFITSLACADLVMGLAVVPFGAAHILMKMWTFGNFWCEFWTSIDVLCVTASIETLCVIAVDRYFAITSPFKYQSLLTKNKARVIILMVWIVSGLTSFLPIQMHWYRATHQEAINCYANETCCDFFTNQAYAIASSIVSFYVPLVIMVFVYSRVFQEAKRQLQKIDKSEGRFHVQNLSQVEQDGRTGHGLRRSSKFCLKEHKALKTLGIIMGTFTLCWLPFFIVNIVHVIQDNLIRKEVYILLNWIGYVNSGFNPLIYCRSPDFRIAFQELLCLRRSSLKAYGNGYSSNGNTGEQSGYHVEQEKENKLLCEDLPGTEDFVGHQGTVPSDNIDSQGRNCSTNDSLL
Experimental: as §1

[18] = target: Dyrk1A (Homo sapiens, UniProt Q13627); parameters: Kinase selectivity panel, IC50 of AC484 (Supplementary Table 1)
[19] = target: T17, MST1 (Homo sapiens, UniProt Q13043); parameters: Kinase selectivity panel, IC50 of AC484 (Supplementary Table 1)
T17 construct: gene STK4

Work on CC(C)CCN[C@@H]1CCc2cc(O)c(N3CC(=O)NS3(=O)=O)c(F)c2C1 [AC484, ABBV-CLS-484] yielded an AC50 [1] of over 0.01 mM, an AC50 [2] of over 0.01 mM and an AC50 [3] of over 0.01 mM. The AC50 [4] was over 0.01 mM, the AC50 [5] was over 0.01 mM and the AC50 [6] was over 0.01 mM. The AC50 [7] was over 0.01 mM, the AC50 [8] was over 0.01 mM and the AC50 [9] was over 0.01 mM. For the same compound, the AC50 [10] was over 0.01 mM, the AC50 [11] was over 0.01 mM and the AC50 [12] was over 0.01 mM. The AC50 [13] was over 0.01 mM, the AC50 [14] was over 0.01 mM and the AC50 [15] was over 0.01 mM. For the same compound, the AC50 [16] was over 0.01 mM, the AC50 [17] was over 0.01 mM and the IC50 [18] was over 10 µM. It also gave an IC50 [19] of over 10 µM.
